Legend:
Assay type in all cases: cell-based
[1] = test system: nine strains of Candida albicans; assay: Growth of Candida in enrichment broth after 24 hours, clinical strains; set-up: key to growth of Candida albicans, strain 1 / growth of Candida albicans, strain 2 / growth of Candida albicans, strain 3 / growth of Candida albicans, strain 4 / growth of Candida albicans, strain 5 / growth of Candida albicans, strain 6 / growth of Candida albicans, strain 7 / growth of Candida albicans, strain 8 / growth of Candida albicans, strain 9: +: means the growth of organisms; −: means no growth of organisms; settings: enrichment broth, 37° C. for 24 hours
Text: (§1) b. Enrichment broth: which contained 1 percent of yeast extract powder, 9 percent of sucrose, 0.025 percent of manganese sulfate (MnSO4.4H2O), 0.058 percent of magnesium sulfate (MgSO4.7H2O), and 0.9 percent of lactic acid, the pH value of the broth was adjusted to 4.5, and the enrichment broth was sterilized for later use;
(2) Experimental groups: the requirements of aseptic operation technique were strictly followed so to prepare the sterile test tubes;
a. sodium benzoate group: each test tube contained 5 milliliters enrichment broth, and was added in 0.025 percent (weight/volume) of sodium benzoate;
b. 2-phenylethanol group: each test tube contained 5 milliliters enrichment broth, and was added in 0.050 percent (weight/volume) of 2-phenylethanol;
c. sodium propionate group: each test tube contained 5 milliliters enrichment broth, and was added in 0.125 percent (weight/volume) of sodium propionate;
d. “a group of the combinations of sodium benzoate and sodium propionate”: each test tube contained 5 milliliters enrichment broth, and was added in 0.025 percent (weight/volume) of sodium benzoate and 0.125 percent (weight/volume) of sodium propionate;
e. “a group of the combinations of sodium benzoate and 2-phenylethanol”: each test tube contained 5 milliliters enrichment broth, and was added in 0.025 percent (weight/volume) of sodium benzoate and 0.050 percent (weight/volume) of 2-phenylethanol;
f. “a group of the combinations of sodium propionate and 2-phenylethanol”: each test tube contained 5 milliliters enrichment broth, and was added in 0.125 percent (weight/volume) of sodium propionate and 0.050 percent (weight/volume) of 2-phenylethanol;
g. “a group of the combinations of sodium benzoate, sodium propionate and 2-phenylethanol”: each test tube contained 5 milliliters enrichment broth, and was added in 0.025 percent (weight/volume) of sodium benzoate, 0.125 percent (weight/volume) of sodium propionate and 0.050 percent (weight/volume) of 2-phenylethanol;
h. positive control: the control tube of enrichment broth without adding in 2-phenylethanol, sodium benzoate, and sodium propionate; but inoculated the suspension of Candida albicans;
i. negative control: the control tube of enrichment broth without adding in 2-phenylethanol, sodium benzoate, and sodium propionate; and without inoculating Candida albicans;
The requirements for aseptic operation technique were strictly followed to prepare the suspension of organism. The colonies of each strain of Candida albicans organism were diluted with physiological saline respectively. The turbidities of the suspensions of Candida albicans organism were adjusted to 0.5 MCF (about 10^8 CFU/ml) by a turbidimeter. 1 milliliter of the 0.5 MCF organism suspension was added into 9 milliliters of enrichment broth. Each suspension was diluted for ten times to contain 10^7 CFU/ml of organisms.
the requirements for aseptic technique were strictly followed to take 100 microliters of the prepared organism suspension respectively and to add the suspension into the test tubes from a to h as well as the positive control tube. No organism suspension was added into the negative control tube i.
The above tubes were cultured in a biochemical incubator at 37° C. for 24 hours. Then the growth of Candida in each tube was observed and recorded.
Remark: “+” means the growth of organisms; “−” means no growth of organisms.

[2] = test system: three strains of Escherichia coli isolated from the vaginal secretion of patients with vaginitis; assay: Growth in enrichment broth (turbidity after 24 hours), clinical strains; set-up: key to growth of Escherichia coli, Bacterial strain 1 / growth of Escherichia coli, Bacterial strain 2 / growth of Escherichia coli, Bacterial strain 3: +: means the growth of bacteria; −: means no growth of bacteria; settings: enrichment broth, 37° C. for 24 hours, turbidity
Text: (§2) a. Experimental strains, three strains of Escherichia coli and three strains of Staphylococcus aureus, which were all isolated from the vaginal secretion of patients with vaginitis.
as §1, with “broth,” for “broth:”, “4.8,” for “4.5,”
(§3) (2). Experimental groups: the requirements for aseptic operation technique were strictly followed to prepare the sterile test tubes:
(§4) a. sodium benzoate group: each test tube contained 5 milliliters of enrichment broth, and was added in 0.05 percent (weight/volume) sodium benzoate;
(§5) b. 2-phenylethanol group: each test tube contained 5 milliliters of enrichment broth, and was added in 0.05 percent (weight/volume) of 2-phenylethanol;
(§6) c. sodium propionate group: each test tube contained 5 milliliters of enrichment broth, and was added in 0.25 percent (weight/volume) of sodium propionate;
(§7) d. “a group of the combinations of sodium benzoate and sodium propionate”: each test tube contained 5 milliliters of enrichment broth, and was added in 0.05 percent (weight/volume) of sodium benzoate and 0.25 percent (weight/volume) of sodium propionate;
(§8) e. “a group of the combinations of sodium benzoate and 2-phenylethanol”: each test tube contained 5 milliliters of enrichment broth, and was added in 0.05 percent (weight/volume) of sodium benzoate and 0.05 percent (weight/volume) of 2-phenylethanol;
(§9) f. “a group of the combinations of sodium propionate and 2-phenylethanol”: each test tube contained 5 milliliters of enrichment broth, and was added in 0.25 percent (weight/volume) of sodium propionate and 0.05 percent (weight/volume) of 2-phenylethanol;
(§10) g. “a group of the combinations of sodium benzoate, sodium propionate and 2-phenylethanol”: each test tube contained 5 milliliters of enrichment broth, and was added in 0.05 percent (weight/volume) of sodium benzoate, 0.25 percent (weight/volume) of sodium propionate, and 0.05 percent (weight/volume) of 2-phenylethanol;
(§11) h. positive control: one tube that contained 5 milliliters of enrichment broth without adding in any of the 2-phenylethanol, sodium benzoate, and sodium propionate, but inoculated the suspension of Escherichia coli or Staphylococcus aureus.
(§12) i. negative control: one tube that contained 5 milliliters of enrichment broth without adding in any of the 2-phenylethanol, sodium benzoate, and sodium propionate, and not inoculated the suspension of Escherichia coli or Staphylococcus aureus.
(§13) The requirements for aseptic operation technique were strictly followed to prepare the bacterial suspensions. The colonies of Escherichia coli and Staphylococcus aureus were diluted with physiological saline respectively to prepare bacterial suspension. The turbidities of the Escherichia coli suspension and the Staphylococcus aureus suspension were adjusted to 0.5 MCF (about 10^8 CFU/ml) by a turbidimeter. 1 milliliter of the 0.5 MCF bacterial suspensions were added into 9 milliliters of the enrichment broth respectively, so each bacterial solution was diluted for ten times to contain 10^7 CFU/ml of bacterial organisms.
(§14) The requirements for aseptic operation technique were strictly followed to take 100 microliters of the prepared bacterial suspensions respectively, and to add the bacterial suspensions into the aforesaid test tubes from a to h as well as positive control tube. No bacterial suspension was added into the negative control tube i.
(§15) The above tubes were cultured in a biochemical incubator at 37° C. for 24 hours, then turbidity changes of the test tube solutions were observed and recorded.
(§16) Remark: “+” means the growth of bacteria; “−” means no growth of bacteria.

[3] = test system: three strains of Staphylococcus aureus isolated from the vaginal secretion of patients with vaginitis; assay: as above; set-up: key to growth of Staphylococcus aureus, Bacterial strain 1 / growth of Staphylococcus aureus, Bacterial strain 2 / growth of Staphylococcus aureus, Bacterial strain 3: +: means the growth of bacteria; −: means no growth of bacteria; settings: enrichment broth, 37° C. for 24 hours, turbidity
Text: as §2
as §1, with “broth,” for “broth:”, “4.8,” for “4.5,”
as §3, §4, §5, §6, §7, §8, §9, §10, §11, §12, §13, §14, §15, §16

[4] = test system: Lactococcus lactis and Lactobacillus jensenii; assay: pH of test gel after co-culture of Lactococcus lactis and Lactobacillus jensenii; settings: cultivated 32 hours
Text: (§17) 2.1 Experimental strains: one Lactococcus lactis strain and one Lactobacillus jensenii strain, both were clinical isolates.
(§18) The pH value was adjusted to 5.0.
(§19) 2.4 Experimental procedure: the test gel tubes containing different concentrations of antimicrobial agents, as shown in Tables 1 to 6 were inoculated with 100 microliters of Lactobacillus lactis suspension and 100 microliters of Lactobacillus jensenii suspension at the same time. The turbidities of both suspensions were 0.5 MCF. Then the tubes were cultivated at 37° C. and under 5 percent CO2 for 32 hours. Then the changes of the pH values of gels were tested. The gels were smeared, Gram stained, and microscopically examined for the morphology and quantity of bacteria.

[5] = test system: Lactobacillus jensenii; assay: Gram-stained smear of co-culture gel, Gram-positive rods (G+b); settings: for Smear G^+b: cultivated 32 hours
Text: as §17, §18, §19

[6] = test system: Lactococcus lactis; assay: Gram-stained smear of co-culture gel, Gram-positive cocci (G+c); settings: for Smear G^+c: cultivated 32 hours
Text: as §17, §18, §19

With CCC(=O)[O-].[Na+] [f. 0.125% sodium propionate] the “growth of Candida albicans, strain 1” value ([1]; strain 1) was “+”, the “growth of Candida albicans, strain 2” value ([1]; strain 2) was “+” and the “growth of Candida albicans, strain 3” value ([1]; strain 3) was “−”. The “growth of Candida albicans, strain 4” value ([1]; strain 4) was “+”, the “growth of Candida albicans, strain 5” value ([1]; strain 5) was “+” and the “growth of Candida albicans, strain 6” value ([1]; strain 6) was “+”. For the same compound, the “growth of Candida albicans, strain 7” value ([1]; strain 7) was “−”, the “growth of Candida albicans, strain 8” value ([1]; strain 8) was “+” and the “growth of Candida albicans, strain 9” value ([1]; strain 9) was “−”.
With OCCc1ccccc1 [b. 0.05% 2-phenylethanol] the “growth of Escherichia coli, Bacterial strain 1” value ([2]; strain 1) was “+”, the “growth of Escherichia coli, Bacterial strain 2” value ([2]; strain 2) was “+” and the “growth of Escherichia coli, Bacterial strain 3” value ([2]; strain 3) was “+”. For the same compound, the “growth of Staphylococcus aureus, Bacterial strain 1” value ([3]; strain 1) was “+”, the “growth of Staphylococcus aureus, Bacterial strain 2” value ([3]; strain 2) was “+” and the “growth of Staphylococcus aureus, Bacterial strain 3” value ([3]; strain 3) was “+”.
In the case of CCCCCCCC(=O)[O-].[Na+] [sodium octanoate], the pH value ([4]; 0.010 % in test gel) is reported as under 3.8, the pH value ([4]; 0.015 % in test gel) is reported as under 3.8 and the pH value ([4]; 0.020 % in test gel) is reported as 3.8. For the same compound, the pH value ([4]; 0.05 % in test gel) was 4.8, the “Smear G^+b” value ([5]; 0.010 % in test gel) was “G^+b+” and the “Smear G^+b” value ([5]; 0.015 % in test gel) was “G^+b+”. For the same compound, the “Smear G^+b” value ([5]; 0.020 % in test gel) was “G^+b+”, the “inhibiting effect on lactobacillus” value ([5]; 0.05 percent) was “stronger inhibiting effect” and the “Smear G^+c” value ([6]; 0.010 % in test gel) was “G^+c++++”. For the same compound, the “inhibition effect on the growth of Lactococcus lactis” value ([6]; 0.010 to 0.020 percent) was “little inhibition effect”, the “Smear G^+c” value ([6]; 0.015 % in test gel) was “G^+c++++” and the “Smear G^+c” value ([6]; 0.020 % in test gel) was “G^+c++++”. For the same compound, the “inhibiting effect on Lactococcus lactis” value ([6]; 0.05 percent) was “stronger inhibiting effect”.
